Test results published in ChEMBL document CHEMBL1201862, “PubChem BioAssay data set” (2004).
Several values for one entry are separate records, joined by “and”; a condition that tells them apart may be missing. Equal entries are not always repeated.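 How tested: cells in 96-well plates exposed to compound for 48 hours at five concentrations. Abbreviation: GI50, concentration required for 50% inhibition of growth.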 Activity calls are given as the source filed them. Cut-off read from the data, not from the text of the source: active = GI50 up to about 1.1 µM and inactive = higher.

Legend:
Experiment in all cases: NCI tumour cell line growth inhibition, 48 h
786-0 = test system: 786-0
A498 = test system: A498
A549 = test system: A549
ACHN = test system: ACHN
CAKI-1 = test system: CAKI-1
CCRF-CEM = test system: CCRF-CEM
COLO 205 = test system: COLO 205
DU-145 = test system: DU-145
EKVX = test system: EKVX
HCC 2998 = test system: HCC 2998
HCT-116 = test system: HCT-116
HCT-15 = test system: HCT-15
HL-60 = test system: HL-60
HOP-62 = test system: HOP-62
HOP-92 = test system: HOP-92
HT-29 = test system: HT-29
Hs-578T = test system: Hs-578T
IGROV-1 = test system: IGROV-1
K562 = test system: K562
KM12 = test system: KM12
LOX IMVI = test system: LOX IMVI
M14 = test system: M14
MCF7 = test system: MCF7
MDA-MB-231 = test system: MDA-MB-231
MDA-MB-435 = test system: MDA-MB-435
MDA-N = test system: MDA-N
MOLT-4 = test system: MOLT-4
Malme-3M = test system: Malme-3M
NCI-H226 = test system: NCI-H226
NCI-H23 = test system: NCI-H23
NCI-H460 = test system: NCI-H460
NCI-H522 = test system: NCI-H522
NCI/ADR-RES = test system: NCI/ADR-RES
OVCAR-3 = test system: OVCAR-3
OVCAR-4 = test system: OVCAR-4
OVCAR-5 = test system: OVCAR-5
OVCAR-8 = test system: OVCAR-8
PC-3 = test system: PC-3
RPMI-8226 = test system: RPMI-8226
RXF 393 = test system: RXF 393
SF-268 = test system: SF-268
SF-295 = test system: SF-295
SF-539 = test system: SF-539
SK-MEL-28 = test system: SK-MEL-28
SK-MEL-2 = test system: SK-MEL-2
SK-MEL-5 = test system: SK-MEL-5
SK-OV-3 = test system: SK-OV-3
SN12C = test system: SN12C
SNB-19 = test system: SNB-19
SNB-75 = test system: SNB-75
SW-620 = test system: SW-620
T47D = test system: T47D
TK-10 = test system: TK-10
U-251 = test system: U-251
UACC-257 = test system: UACC-257
UACC-62 = test system: UACC-62
UO-31 = test system: UO-31
BT-549 = test system: BT-549
SR = test system: SR

Compound: CC(=O)N1CN2C(=O)CCC2c2cc(C)ccc21 (stereo not drawn)
- GI50 (786-0): > 100 µM (inactive)
- GI50 (A498): > 100 µM (inactive)
- GI50 (A549): > 100 µM (inactive)
- GI50 (ACHN): > 100 µM (inactive)
- GI50 (CAKI-1): > 100 µM (inactive)
- GI50 (CCRF-CEM): > 100 µM (inactive)
- GI50 (COLO 205): > 100 µM (inactive)
- GI50 (DU-145): > 100 µM (inactive)
- GI50 (EKVX): > 100 µM (inactive)
- GI50 (HCC 2998): > 100 µM (inactive)
- GI50 (HCT-116): > 100 µM (inactive)
- GI50 (HCT-15): > 100 µM
- GI50 (HL-60): > 100 µM (inactive)
- GI50 (HOP-62): > 100 µM (inactive)
- GI50 (HOP-92): > 100 µM (inactive)
- GI50 (HT-29): > 100 µM (inactive)
- GI50 (Hs-578T): > 100 µM (inactive)
- GI50 (IGROV-1): > 100 µM (inactive)
- GI50 (K562): > 100 µM (inactive)
- GI50 (KM12): > 100 µM (inactive)
- GI50 (LOX IMVI): > 100 µM (inactive)
- GI50 (M14): > 100 µM (inactive)
- GI50 (MCF7): > 100 µM (inactive)
- GI50 (MDA-MB-231): > 100 µM (inactive)
- GI50 (MDA-MB-435): > 100 µM (inactive)
- GI50 (MDA-N): > 100 µM (inactive)
- GI50 (MOLT-4): > 100 µM (inactive)
- GI50 (Malme-3M): > 100 µM (inactive)
- GI50 (NCI-H226): > 100 µM (inactive)
- GI50 (NCI-H23): > 100 µM (inactive)
- GI50 (NCI-H460): > 100 µM (inactive)
- GI50 (NCI-H522): > 100 µM (inactive)
- GI50 (NCI/ADR-RES): > 100 µM (inactive)
- GI50 (OVCAR-3): > 100 µM (inactive)
- GI50 (OVCAR-4): > 100 µM (inactive)
- GI50 (OVCAR-5): > 100 µM (inactive)
- GI50 (OVCAR-8): > 100 µM (inactive)
- GI50 (PC-3): > 100 µM (inactive)
- GI50 (RPMI-8226): > 100 µM (inactive)
- GI50 (RXF 393): > 100 µM (inactive)
- GI50 (SF-268): > 100 µM (inactive)
- GI50 (SF-295): > 100 µM (inactive)
- GI50 (SF-539): > 100 µM (inactive)
- GI50 (SK-MEL-28): > 100 µM (inactive)
- GI50 (SK-MEL-2): > 100 µM (inactive)
- GI50 (SK-MEL-5): > 100 µM (inactive)
- GI50 (SK-OV-3): > 100 µM (inactive)
- GI50 (SN12C): > 100 µM (inactive)
- GI50 (SNB-19): > 100 µM (inactive)
- GI50 (SNB-75): > 100 µM (inactive)
- GI50 (SW-620): > 100 µM (inactive)
- GI50 (T47D): > 100 µM (inactive)
- GI50 (TK-10): > 100 µM (inactive)
- GI50 (U-251): > 100 µM (inactive)
- GI50 (UACC-257): > 100 µM (inactive)
- GI50 (UACC-62): > 100 µM (inactive)
- GI50 (UO-31): > 100 µM (inactive)

Compound: CC(C)[Si](Oc1ccc(CC2N(C(=O)c3ccc([N+](=O)[O-])cc3)C(CCc3ccccc3)CC2(C)C=O)cc1)(C(C)C)C(C)C (stereo not drawn)
- GI50 (786-0): 17.2 µM (inactive)
- GI50 (A498): > 100 µM (inactive)
- GI50 (ACHN): > 100 µM (inactive)
- GI50 (BT-549): 21.3 µM (inactive)
- GI50 (CAKI-1): > 100 µM (inactive)
- GI50 (CCRF-CEM): > 100 µM (inactive)
- GI50 (COLO 205): > 100 µM (inactive)
- GI50 (DU-145): 61.1 µM (inactive)
- GI50 (EKVX): 82.6 µM (inactive)
- GI50 (HCC 2998): > 100 µM (inactive)
- GI50 (HCT-15): 5.6 µM
- GI50 (HOP-62): 7.57 µM (inactive)
- GI50 (HOP-92): 13.9 µM (inactive)
- GI50 (Hs-578T): 32 µM (inactive)
- GI50 (IGROV-1): 7.38 µM (inactive)
- GI50 (LOX IMVI): > 100 µM (inactive)
- GI50 (MDA-MB-231): 12.9 µM (inactive)
- GI50 (Malme-3M): > 100 µM (inactive)
- GI50 (NCI-H226): 15.5 µM (inactive)
- GI50 (NCI-H23): 27.8 µM (inactive)
- GI50 (NCI-H522): > 100 µM (inactive)
- GI50 (OVCAR-3): > 100 µM (inactive)
- GI50 (OVCAR-4): > 100 µM (inactive)
- GI50 (OVCAR-5): > 100 µM (inactive)
- GI50 (OVCAR-8): 13.6 µM (inactive)
- GI50 (PC-3): > 100 µM (inactive)
- GI50 (RPMI-8226): > 100 µM (inactive)
- GI50 (RXF 393): 5.85 µM (inactive)
- GI50 (SF-268): 19.4 µM (inactive)
- GI50 (SF-295): 7.05 µM (inactive)
- GI50 (SF-539): 6.22 µM (inactive)
- GI50 (SK-MEL-28): > 100 µM (inactive)
- GI50 (SK-MEL-2): 86.7 µM (inactive)
- GI50 (SK-OV-3): 27.7 µM (inactive)
- GI50 (SNB-19): 15.6 µM (inactive)
- GI50 (SR): 2.58 µM (inactive)
- GI50 (T47D): > 100 µM (inactive)
- GI50 (TK-10): > 100 µM (inactive)
- GI50 (U-251): 20.5 µM (inactive)
- GI50 (UACC-257): > 100 µM (inactive)
- GI50 (UACC-62): > 100 µM (inactive)
- GI50 (UO-31): > 100 µM (inactive)

Compound: CCOC(=O)c1c(-c2ccc(OC)c(O)c2)c(C#N)c(=S)n(C2OC(COC(C)=O)C(OC(C)=O)C(OC(C)=O)C2OC(C)=O)c1-c1ccccc1 (stereo not drawn)
- GI50 (A498): > 100 µM (inactive)
- GI50 (A549): 51.9 µM (inactive)
- GI50 (BT-549): 28.8 µM (inactive)
- GI50 (Malme-3M): 32.4 µM (inactive)
- GI50 (NCI-H226): > 100 µM (inactive)
- GI50 (NCI-H460): 67.1 µM (inactive) and 34 µM (inactive)
- GI50 (NCI-H522): 21.4 µM (inactive)
- GI50 (OVCAR-5): > 100 µM (inactive)
- GI50 (OVCAR-8): > 100 µM (inactive)
- GI50 (RXF 393): 50.1 µM (inactive)
- GI50 (SF-295): 52.8 µM (inactive)
- GI50 (SNB-19): > 100 µM (inactive) and 83.2 µM (inactive)
- GI50 (SR): > 100 µM (inactive) and 60.3 µM (inactive)
- GI50 (SW-620): 59.7 µM (inactive)
- GI50 (U-251): 90.4 µM (inactive)

Compound: NNC(=O)CC(=O)Nc1ccc(S(=O)(=O)c2ccc(NC(=O)CC(=O)NN)cc2)cc1
- GI50 (786-0): > 100 µM (inactive)
- GI50 (A498): > 100 µM (inactive)
- GI50 (A549): > 100 µM (inactive)
- GI50 (ACHN): > 100 µM (inactive)
- GI50 (BT-549): > 100 µM (inactive)
- GI50 (CAKI-1): > 100 µM (inactive)
- GI50 (CCRF-CEM): > 100 µM (inactive)
- GI50 (COLO 205): > 100 µM (inactive)
- GI50 (DU-145): > 100 µM (inactive)
- GI50 (EKVX): > 100 µM (inactive)
- GI50 (HCC 2998): > 100 µM (inactive)
- GI50 (HCT-116): > 100 µM (inactive)
- GI50 (HCT-15): > 100 µM
- GI50 (HL-60): > 100 µM (inactive)
- GI50 (HOP-62): > 100 µM (inactive)
- GI50 (HOP-92): > 100 µM (inactive)
- GI50 (HT-29): > 100 µM (inactive)
- GI50 (Hs-578T): > 100 µM (inactive)
- GI50 (IGROV-1): > 100 µM (inactive)
- GI50 (K562): > 100 µM (inactive)
- GI50 (KM12): > 100 µM (inactive)
- GI50 (M14): > 100 µM (inactive)
- GI50 (MDA-MB-231): > 100 µM (inactive)
- GI50 (MDA-MB-435): > 100 µM (inactive)
- GI50 (MOLT-4): > 100 µM (inactive)
- GI50 (NCI-H226): > 100 µM (inactive)
- GI50 (NCI-H23): > 100 µM (inactive)
- GI50 (NCI-H460): > 100 µM (inactive)
- GI50 (NCI-H522): > 100 µM (inactive)
- GI50 (NCI/ADR-RES): > 100 µM (inactive)
- GI50 (OVCAR-3): > 100 µM (inactive)
- GI50 (OVCAR-4): > 100 µM (inactive)
- GI50 (OVCAR-5): > 100 µM (inactive)
- GI50 (OVCAR-8): > 100 µM (inactive)
- GI50 (PC-3): > 100 µM (inactive)
- GI50 (RPMI-8226): > 100 µM (inactive)
- GI50 (RXF 393): > 100 µM (inactive)
- GI50 (SF-268): > 100 µM (inactive)
- GI50 (SF-295): > 100 µM (inactive)
- GI50 (SF-539): > 100 µM (inactive)
- GI50 (SK-MEL-28): > 100 µM (inactive)
- GI50 (SK-MEL-2): > 100 µM (inactive)
- GI50 (SK-MEL-5): > 100 µM (inactive)
- GI50 (SK-OV-3): > 100 µM (inactive)
- GI50 (SN12C): > 100 µM (inactive)
- GI50 (SNB-19): > 100 µM (inactive)
- GI50 (SNB-75): > 100 µM (inactive)
- GI50 (SW-620): > 100 µM (inactive)
- GI50 (T47D): > 100 µM (inactive)
- GI50 (TK-10): > 100 µM (inactive)
- GI50 (U-251): > 100 µM (inactive)
- GI50 (UACC-257): > 100 µM (inactive)
- GI50 (UACC-62): > 100 µM (inactive)
- GI50 (UO-31): > 100 µM (inactive)
